The text below walks through data of a melting point compilation (Tetko et al.; mined from patent text by program, amines drawn as free bases though some values may be those of a salt).

Each structure is given as a SMILES string.

As usually defined, the melting point is the temperature, or range, at which the solid turns liquid. In turn, `COc1ccccc1NC(=O)Cc1ccccc1` returned a melting point of 128 to 131 °C.

In turn, `CCC1(C)OC(c2ccc(S(N)(=O)=O)cc2)=C(c2ccco2)C1=O` (stereo unspecified) came in with a melting point of 154 to 155 °C.

In the case of `Nc1cccc(C=Cc2ccc3ccccc3n2)c1`, the melting point fell in the range of 158 to 160 °C.

`O=C(NC(CCC(=O)N1CCCC1C(=O)O)C(=O)O)c1ccccc1` (stereo unspecified) showed a melting point of 102 to 104 °C.

For the compound `C#Cc1ncn2c(C(F)F)cc(-c3ccc(C(F)(F)F)cc3)nc12`, the melting point was found to be 135 °C.

The compound `Cc1nc(NC(=O)n2ccnc2)sc1-c1ccnc(CC2CC2)n1` gave a melting point of 240 to 243 °C.

As to `CCc1cc(CC)c2ccc(=O)n(CCN(C)C)c2n1`, the melting point was 59.5 to 61 °C.

Regarding `CCOC(=N)CC1(C)OCCc2c1[nH]c1ccccc21` (stereo unspecified), the melting point lay within 140 to 141 °C.

`COc1ccccc1[C@@]1(O)[C@H](O)CC(c2ccccc2)(c2ccccc2)[C@@H]2CN(C(=O)Cc3cn(C)c4ccccc34)C[C@@H]21` (racemic) returned a melting point of 240 °C.

Take `O=c1[nH]c2c3ccccc3ccc2n(C2CC2)c1=O`: the melting point came to 307 °C.

Compound `CSc1c(C=C(C#N)S(C)(=O)=O)c2ccccc2n1Cc1ccccc1` displayed a melting point of 125 to 126 °C.

`CCCCCC(=O)NCCCSc1ccncc1` gave a melting point of 48 to 49 °C.

For `Nc1nc2cc(Cl)c(Cl)c(Cl)c2[nH]1`, the melting point lay in the range of 255 to 258 °C.

As for `CC(C)(C)c1nc(CO)c[nH]1`, the melting point is 212 to 221 °C.

Turning to `NCc1ccc(N2C(=O)N(c3ccccc3Br)Cc3cnc(Nc4ccccc4)nc32)cc1`, the melting point fell in the range of 133 to 136 °C.

`Cc1cc(=O)c2[nH]nc(-c3ccc(Cl)cc3)c2[nH]1` showed a melting point of 324 to 327 °C.

`Cn1c(COc2ccc(CC3SC(=O)NC3=O)cc2)nc2ccc(Oc3ccc(NC(=O)NC45CC6CC(CC(C6)C4)C5)cc3)cc21` (stereo unspecified) gave a melting point of 164 to 167 °C.

As to `Cc1cnccc1C(CCC(=O)O)C(=O)c1cccc(OCc2ccccc2)c1` (racemic), the melting point was in the range of 55 to 57 °C.

As to `N=C(Nc1ccc2[nH]cc(C3CCN(C(=N)c4cccs4)CC3)c2c1)c1cccs1`, the melting point lay within 115 to 117 °C.

`COc1ccc(NC(=O)C(C#N)C(=O)c2cccn2C)cc1` (stereo unspecified) yielded a melting point of 192 to 193 °C.

The compound `CC(C)(C)c1cc(-c2ccc(N)cc2)cc(C(C)(C)C)c1O` had a melting point of 113 to 114 °C.

`Cc1c(C)c(N2CCN(c3ccc(S(C)(=O)=O)cc3)CC2)c(C)c2c1OC(C)C2` (stereo unspecified) had a melting point of 228 to 233 °C.

On to `CCCCNC(=S)N1CCN(c2cnccn2)CC1`, for which the melting point lay within 97.5 to 98.5 °C.

`CC(C)C1SCC(=O)CC1=O` (stereo unspecified) registered a melting point of 71 °C.

Regarding `O=C(Nc1cccc2c1C(=O)c1c-2n[nH]c1-c1ccc(C(=O)NC2CCNCC2)s1)NN1CCOCC1`, the melting point fell in the range of 224 to 226 °C.

For `CC(=O)c1cc(S(=O)(=O)N(C)C)c(Cl)cc1Cl`, the melting point was 98 to 100 °C.

`CCCCCCC(C)(C)c1ccc(C2=CCCNC2)c(O)c1` yielded a melting point of 122 to 123 °C.

On to `N#Cc1cccc(C[C@H](N)C(=O)O)c1`, for which the melting point was in the range of 248 to 250 °C.

`CN1CC(c2cccc(Br)c2)=C(c2ccc(S(C)(=O)=O)cc2)C1=O` yielded a melting point of 138 to 139 °C.

The compound `N#Cc1ccc(OCc2ccccc2)c(O)c1` returned a melting point of 101 °C.

`ClC1=Nc2cccc(Br)c2C2=NCCN12` displayed a melting point of 220 to 223 °C.

Take `COc1ccc(CN2C(=O)[C@H](NC(=O)COc3ccccc3)[C@@H]2c2ccccc2C2OCCO2)c(OC)c1` (relative stereo): the melting point was in the range of 137 to 138 °C.

`CC1CN(c2ccccc2)C(=O)N(c2cccc(C(F)(F)F)c2)C1` (stereo unspecified) had a melting point of 121 to 123 °C.

For `Nc1ncc(Sc2ncccc2O)s1`, the melting point was in the range of 128 to 130 °C.

In turn, `FC1(Cl)Oc2cc3nc(C(Cl)(Cl)Cl)[nH]c3cc2OC1(F)Cl` (stereo unspecified) showed a melting point greater than 230 °C.

For `Cc1cc(C)nc(NC(=O)NS(=O)(=O)c2ccccc2S(=O)(=O)N(C)OCc2ccccc2)n1`, the melting point lay in the range of 186 to 192 °C.

`CC1(C)C=C(c2ccccc2)c2cccc3c2N1C(=O)C3=O` came in with a melting point of 210 to 212 °C.

`Fc1cccc(CCc2nnc(-c3ccc4c(c3)CCO4)o2)c1` had a melting point of 85 to 86 °C.

Turning to `N#CCCN1CC(=O)N(CCC#N)CC1=O`, the melting point was 166 °C.

`OCC1Cc2c(F)cccc2OC1CO` (stereo unspecified): the melting point is 99 to 101 °C.

`CCOC(=O)c1cnc2c(S)cccn2c1=O` showed a melting point of 151 to 152 °C.

`CS(=O)(=O)c1ccccc1OC(F)(F)F` had a melting point of 44 to 46 °C.

For `CCOC(=O)c1cnn(Cc2ccccc2)c1NC(=O)Nc1ccccc1`, the melting point was in the range of 178 to 179 °C.

`CC(=O)OC1Oc2ccc(Br)cc2C1(C)C` (stereo unspecified) came in with a melting point of 73 to 80 °C.

`COc1ccc(/C=C/CCCCO)cc1` showed a melting point of 66 °C.

`CN(O)CC1=C(n2ccccc2=O)c2cc([N+](=O)[O-])ccc2OC1(C)C` yielded a melting point of 159 °C.

The compound `O=C(Nc1sc2c(c1S(=O)(=O)O)CCCC2)C1CC1` gave a melting point of 225 to 230 °C.

For `CC(C)(C)OC(=O)N1CC(CCl)c2c1cc(O)c1ncccc21` (stereo unspecified), the melting point lay in the range of 148 to 149 °C.

In turn, `COc1ccc(-c2cc(=Nc3c(C)cc(C)cc3C)n(C)c(N3CC=CCC3)n2)cc1OC` registered a melting point of 161 to 163 °C.

`Cc1cc(-c2cc(C(F)F)n3ncc(C(=O)Nc4cccc(S(C)(=O)=O)c4)c3n2)ccc1Cl` showed a melting point of 270 °C.

For the compound `CCNS(=O)(=O)c1cccc(NC(=O)c2cnn3c(C(F)F)cc(-c4ccc(C(F)(F)F)cc4)nc23)c1`, the melting point was 259 °C.

`Cc1cccc(Nc2ncnc3cnc(NC4CCN(C(=O)N(C)C)CC4)nc23)c1` displayed a melting point of 185 to 187 °C.

With `COCN1C(C)=C(C(=O)OCc2ccccc2)C(c2cccc(Cl)c2Cl)C(C(=O)OCc2ccccc2)=C1C`, the melting point lay in the range of 116 to 117 °C.

`COCCN(C)c1c(S(=O)(=O)C(F)(F)F)c(C#N)nn1-c1c(Cl)cc(C(F)(F)F)cc1Cl` had a melting point of 75 °C.

For the compound `COC1=C(OC)C(=O)OC1=O`, the melting point lay in the range of 41 to 43 °C.

The compound `CC(=O)N1CCN(c2cc3c(c(N)c2F)c(=O)c(C(=O)O)cn3C2CC2)CC1C` (stereo unspecified) registered a melting point of 269 to 271 °C.

`COc1ccc(S(=O)(=O)Nc2c(Nc3ccccc3)ncnc2Nc2ccccc2)cc1` registered a melting point of 149 to 151 °C.

The compound `O=C(O)c1ccc(-c2cnc3c(c2)N(Cc2cc(F)ccc2F)CCN3)cc1` had a melting point greater than 300 °C.

For the compound `COC(=O)CNC(=O)c1ncccc1O`, the melting point lay within 59 to 61 °C.

Compound `CN(Cc1ccc(-c2ccc(O)c(Br)c2)cc1)C(=O)c1cn(C)c2ccccc12` registered a melting point of 237 to 239 °C.

Compound `CC(=O)NCc1cccc(Nc2nccc(-c3sc(-c4ccc(C)nc4)nc3C)n2)c1` registered a melting point of 227 to 229 °C.

In turn, `O=C(Nc1cccc(F)c1)C12CC3CC(CC(C3)C1)C2` came in with a melting point of 174 to 177 °C.

In the case of `COc1cn(-c2ccc(-c3c(C)noc3C)cc2F)nc(-c2ccnn2-c2ccccc2)c1=O`, the melting point fell in the range of 200 to 202 °C.

`O=C(Nc1ccc(NS(=O)(=O)c2ccc(Cl)c(Cl)c2)cc1)Nc1ccc([N+](=O)[O-])cc1`: the melting point lay in the range of 207 to 209 °C.

Consider `COc1ccc2c(-c3ccccc3)c(C(=O)O)c(=O)[nH]c2c1`, for which the melting point is 292 to 294 °C.

Regarding `COc1cc2c(cc1OC)C(C(C#N)SCCCO)=NCC2` (stereo unspecified), the melting point lay in the range of 155 to 156 °C.

With `CC(=O)Nc1nc(CCc2ccc(CCCN)s2)cs1`, the melting point was in the range of 106 to 108 °C.

`CCc1cc2oc(=O)c(C#N)c(C)c2cc1CC` displayed a melting point of 169 °C.

As for `Clc1ccc(Nc2ncnc(-c3ccnc(N4CCCCC4)c3)n2)cc1`, the melting point lay in the range of 205 to 206 °C.

Turning to `CC(Oc1ccnc2ccccc12)C(=O)Nc1ccc(Cl)cc1` (stereo unspecified), the melting point was in the range of 170 to 172 °C.

On to `O=C1c2nccnc2C(Cl)N1c1ccc2ccc(Cl)nc2n1` (stereo unspecified), for which the melting point worked out at 264 °C.

For the compound `CCCCCCCCOC(=O)Oc1ccc(C(=O)O)cc1`, the melting point was 126 °C.

Regarding `O=C(Nc1ccc(C(=O)N2Cc3ccccc3Cc3ccccc32)cc1)c1ccccc1-c1ccccc1`, the melting point lay within 224 to 225 °C.

The compound `CCc1nc2cc(F)ccc2n1C1CC2CCC(C1)N2CCCSc1ccc(F)cc1` (stereo unspecified) came in with a melting point of 127 to 128 °C.

For the compound `CC(C)(C)OC(=O)N1CCC(c2ncc(-c3cnc(-c4ccccc4)nc3)[nH]2)C1` (stereo unspecified), the melting point was 219 °C.

`COC(=O)c1sccc1NC(=O)OC(C)C` registered a melting point of 105 to 107 °C.

Regarding `CCCCc1nc2sc(C(=O)O)cc2n1Cc1ccc(-c2ccccc2C(=O)O)cc1`, the melting point is 264 °C.

For the compound `Cc1cc(C)c(S(=O)(=O)NC(COc2ccnc3ccccc23)C(F)(F)F)c(C)c1` (stereo unspecified), the melting point was 211 to 212 °C.

`Nc1ncnc2cc(CCl)ccc12` had a melting point greater than 300 °C.

For the compound `CNC(=O)C(NC(=O)c1ccc(F)cc1C(F)(F)F)C(C[N+](=O)[O-])c1ccccc1` (stereo unspecified), the melting point amounted to 223 °C.

Compound `COC(=O)C(=C1SCCCN1C(=O)OC)[N+](=O)[O-]` gave a melting point of 71 to 72 °C.

As to `O=C1N(Cc2cccc(C(F)(F)F)n2)c2ccccc2C12COc1cc3c(cc12)OCCO3` (stereo unspecified), the melting point was in the range of 195 to 196 °C.

On to `CC(C)(C)NC(=O)C(Br)CCl` (stereo unspecified), for which the melting point is 163 to 168 °C.

Compound `CCOC(=O)Nc1c(C(=O)c2cccc(Cl)c2)[nH]c2cc(Cl)ccc12` came in with a melting point of 188 to 189 °C.

Compound `O=c1[nH]cnc2c1CCN(Cc1ccccc1)C2` gave a melting point of 199 °C.

`CC(C)(C)OC(=O)N[C@H]1CNC1=O` registered a melting point of 173 to 175 °C.

Take `OC1(C#CC2(F)C=CC(c3ccccc3)=CC2)CN2CCC1CC2` (stereo unspecified): the melting point lay within 232 to 233 °C.

Consider `O=C(O)CC1(S)C2CC3CC(C2)CC1C3` (stereo unspecified), for which the melting point was in the range of 178 to 180 °C.

Compound `CCCCCCCCCCCCCCCc1ccc(C=O)c(O)c1` came in with a melting point of 50 to 54 °C.

`O=C(c1ccccc1)N1CCn2c(CN3CCOCC3)ccc2C1`: the melting point was in the range of 101 to 102 °C.

`COc1ccc(-c2ccc(C=O)c3occc23)cc1`: the melting point lay within 104 to 105 °C.
